{"source": "patent US20020183333A1", "about": "“Compositions and methods for chemotherapy having reduced nephrotoxicity” (priority 2000, published 2002)", "key": {"[1]": {"test_system": "LLC-WRC 256 cells", "test": "Antineoplastic efficacy of CP by trypan blue exclusion assay (percentage of non-viable cells)", "type": "cell-based, rat", "conditions": "for effect of the inhibitor on the antineoplastic efficacy of cisplatin: 30 min preincubation with DFO 1 mM, DMSO 5 mM, CM 2 mM or PB 1 mM, then cisplatin 500 μg/ml for 5 hours, FIGS. 2 and 3", "protocol": "LLC-WRC 256 cells (Walker rat carcinoma cells) purchased from American Type Culture Collection (ATCC, Rockville, Maryland) were maintained in 75 cm^2 tissue culture flasks containing Medium 199 supplemented with 5% fetal bovine serum (Gibco, Gaithersburg, Md.) in a humidified atmosphere of 95% air-5% CO2 at 37° C. For the experimental study, the cell monolayers were subcultured with 0.25% trypsin into a 12-well tissue culture plate until confluence. The antineoplastic efficacy of CP in LLC-WRC 256 cells was measured by the cell viability determined by the trypan blue exclusion assay. Cells failing to exclude the dye were considered non-viable, and data expressed as the percentage of non-viable cells. Antineoplastic efficacy of CP was examined as previously described (Rawlings and Roberts, 1986, Mutation Research 166(2): 157-168.). The cells were incubated with various concentrations of CP (0-600 μg/ml) at different time points (0-6 h) in HBSS at 37° C. At the end of the incubation, the cell viability was determined. Confluent LLC-WRC 256 cell monolayer was incubated with antineoplastic dose of CP for a period of time necessary to induce consistent antineoplastic activity (CP 500 μg/ml in HBSS for 5 hours at 37° C., based on the. initial observation). The cell monolayers were preincubated with iron chelator, deferoxamine (1 mM) or hydroxyl radical scavenger, dimethyl sulfoxide (5 mM) at 37° C. for 30 minutes, washed twice with HBSS and then followed by the addition of CP. LLC-WRC 256 cell monolayers were preincubated with cimetidine (2 mM) or piperonyl butoxide (1 mM) at 37° C. for 30 min, washed with HBSS twice and then followed by the addition of CP (500 μg/ml for 5 hours at 37° C.)"}, "[2]": {"test_system": "LLC-WRC 256 cells", "test": "Catalytic iron release into the medium, bleomycin assay", "type": "cell-based, rat", "conditions": "CP 500 μg/ml for 2.5 hours, n=6; control 2.44±0.59", "protocol": "Confluent […] 256 cells were washed twice with Chelex-treated HBSS and then incubated with a cytotoxic, dose of CP in Chelex-treated HBSS for a period of time before substantial cell killing occurred (500 μg/ml for 2.5 hours at 37° C., based on the time course study). The catalytic iron released into the medium was measured by the bleomycin assay, as described below. Iron capable of catalyzing free radical reactions (catalytic iron) was measured by the bleomycin assay as utilized in our previous studies (Baliga et al. , 1998, Kidney Int. 53:394-401, and Baliga et al., 1998, Kidney Int. 54:1562-1569). All reagents except for the experimental samples were made up in Chelex-treated pyrogen-free water and shaken with Chelex 100 to remove as much contaminating iron as possible. The reaction mixture contained in order: 0.5 ml of calf thymus DNA (1 mg/ml), 0.05 ml of bleomycin sulfate (1 mg/ml), 0.1 ml MgCl2 (50 mM), 0.1 ml of sample, 0.1 ml of ascorbic acid (8 mM), and either HCl (50 mM) or NaOH (50 mM) to adjust pH in the range of 7.2-7.8. […] The reaction mixture was then heated at 100° C. for 15 minutes, cooled and the resulting chromogen measured using spectrophotometer at A 532 nm. The amount of bleomycin detectable iron in the test sample was calculated from the standard curve and the results expressed as nmol/mg cellular protein recovered from the cell monolayer."}, "[3]": {"test_system": "LLC-WRC 256 cells", "test": "Hydroxyl radical formation, deoxyribose degradation method", "type": "cell-based, rat", "conditions": "CP 500 μg/ml for 2.5 hours, n=4; control 0.45±0.03", "protocol": "Confluent cell monolayers were washed with HBSS and then incubated with cytotoxic dose of CP in HBSS at 37° C. for a period of time before substantial cell killing occurred (500 μg/ml for 2.5 hours). 2-deoxy-D-ribose at a final concentration of 3 mM was added to the medium just prior to the incubation. At the end of the incubation, the medium was collected for the measurement of hydroxyl radical formation by deoxyribose degradation method as described by Halliwell et al., 1988, Meth. Biochem. Anal 33:59-90. In brief, 0.5 ml of the incubation medium was mixed with 0.5 ml of 1% (w/v). 5 thiobarbituric acid in 50 mM NaOH and 0.5 ml of 2.8% (w/v) aqueous trichloroacetic acid, heated at 100° C. for 15 min, cooled and followed by extraction with 1.5ml n-butanol. The absorbance at 532 nm of the resulting supernatant was then taken, and the hydroxyl radical level was calculated by using the extinction coefficient of 156 mM^−1 cm^−1."}, "[4]": {"test_system": "cardiotoxicity induced by doxorubicin", "conditions": "women with breast cancer; cited from earlier work"}}, "note": "Entries after “also recorded” stand apart in the source; their conditions may differ."}
{"smiles": "CN/C(=N/CCSCc1nc[nH]c1C)NC#N", "note": "[CM, cimetidine]", "values": [{"measurement": "effect of the inhibitor on the antineoplastic efficacy of cisplatin", "setting": "[1]", "result": "does not reduce the antineoplastic efficacy of CP; also recorded: do not effect the antineoplastic activity of CP"}]}
{"smiles": "N.N.[Cl][Pt][Cl]", "note": "[CP, cisplatin]", "values": [{"measurement": "time of exposure that results in significant cell death", "setting": "[1]; CP 500 μg/ml, time course 0-6 hours, FIG. 1B", "result": 5, "unit": "h"}, {"measurement": "low dose at which significant cell death occurs", "setting": "[1]; LLC-WRC 256 cells, 4 hour incubation, CP 0-600 μg/ml, FIG. 1A", "result": 50, "unit": "µg/mL"}, {"measurement": "CP dose required to produce submaximal injury", "setting": "[1]; LLC-WRC 256 cells, concentration dependent effects, FIG. 1A", "result": 500, "unit": "µg/mL"}, {"measurement": "catalytic iron release", "setting": "[2]", "result": "2.78±0.41", "unit": "nmol/mg protein"}, {"measurement": "generation of hydroxyl radical", "setting": "[3]", "result": "0.41±0.03", "unit": "nmol/mg protein"}]}
{"smiles": "C[S+](C)[O-]", "note": "[DMSO, dimethyl sulfoxide]", "values": [{"measurement": "effect of the inhibitor on the antineoplastic efficacy of cisplatin", "setting": "[1]", "result": "CP still functions as an antineoplastic compound; also recorded: does not reduce the antineoplastic efficacy of CP"}]}
{"smiles": "C[C@@H](CN1CC(=O)NC(=O)C1)N1CC(=O)NC(=O)C1", "note": "[dexrazoxane]", "values": [{"measurement": "effect on frequency and severity of doxorubicin-induced cardiotoxicity", "setting": "[4]", "result": "decrease the frequency and severity of cardiotoxicity"}]}
